In data set [1] the target is T1, human neutrophil elastase (Homo sapiens, UniProt P08246).
T1 construct: purchased Elastin Products Company
T1 sequence (P08246 30-267): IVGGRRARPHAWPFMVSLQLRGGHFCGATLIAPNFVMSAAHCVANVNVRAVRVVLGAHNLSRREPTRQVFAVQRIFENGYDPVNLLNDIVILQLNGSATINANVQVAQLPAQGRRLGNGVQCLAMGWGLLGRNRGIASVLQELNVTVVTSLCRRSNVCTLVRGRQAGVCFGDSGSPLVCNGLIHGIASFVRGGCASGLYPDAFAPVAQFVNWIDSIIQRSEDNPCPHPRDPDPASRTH
Nature of the data set: Inhibitory action 2 against human neutrophil elastase (Test Example 2; fluorogenic substrate MeOSuc-AAPV-AMC, buffer with 400 mM NaCl, 0.2 mg/ml BSA). Format: biochemical. The following applies: 37° C., read-out: IC50 value (compound concentration required for 50% inhibition of human neutrophil elastase). The method, then: Assay buffer (0.4 unit/ml HNE (human neutrophil elastase, available from Elastin Products Company), 200 mM HEPES [N-(2-hydroxyethyl)piperazine-N′-(2-ethanesulfonic acid)], pH 7.5, 400 mM NaCl, 0.2 mg/ml BSA (bovine serum albumin)) 100 μl, water for injection 20 μl and 1% DMSO (dimethyl sulfoxide) solution of the present compound 20 μl were mixed in a 96 well plate and the mixed solutions were pre-incubated at 37° C. for five minutes. After pre-incubation, MeOSuc-AAPV-AMC (methoxysuccinyl-alanyl-alanyl-prolyl-valyl-aminomethyl cumaride (available from Sigma Aldrich Corp.) solution as fluorogenic substrate (which was dissolved in 10% DMSO solution so as to adjust to 0.5 mM) 40 μl was added to the above-prepared mixed solution so as to initiate the reaction, and the mixture was incubated at 37° C. for five minutes. The fluorescence intensity of AMC was measured at an excitation wavelength of 380 nm and a fluorescence wavelength of 460 nm and the inhibition ratio was determined.

Data set [2] deals with T1, human neutrophil elastase. Description: Inhibitory action against human neutrophil elastase (Test Example 1; fluorogenic substrate MeOSuc-AAPV-AMC, buffer with 2M NaCl, 0.002% Brij-35). The following applies: 37° C., read-out: IC50 value (compound concentration required for 50% inhibition of human neutrophil elastase). Format: biochemical. In short, it runs like this:
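Enzyme (0.4 unit/ml in stock buffer: 200 mM HEPES pH 7.5, 2M NaCl, 0.002% Brij-35) preincubated with compound 5 min at 37 °C. Reaction started with MeOSuc-AAPV-AMC (0.5 mM stock) and run 5 min at 37 °C; AMC fluorescence (ex 380, em 460 nm) gave inhibition ratio.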

IC50 and melting point data for 24 molecules are collected here from patent publication US9040516B2, “Uracil derivative and use thereof for medical purposes” (SUMITOMO DAINIPPON PHARMA CO., LTD., priority 2011, dated 2015).

Molecules are shown by their SMILES. Where a name gives a salt, the structure may show the parent alone.

One may read the melting point as the temperature of the solid-liquid transition.

Consider `Cc1c(-c2ccnn2-c2ccc(C#N)cc2)c(=O)n(C)c(=O)n1-c1cccc(C(F)(F)F)c1` [Example 1, 4-[5-[3,6-dimethyl-2,4-dioxo-1-(3-trifluoromethylphenyl)-1,2,3,4-tetrahydropyrimidin-5-yl]-1H-pyrazol-1-yl]benzonitrile], for which the IC50 in data set [1] stood at 16.9 nM; in data set [2] it was 19 nM.
On the same counts, the results for `CCCn1c(=O)c(-c2ccnn2-c2ccc(C#N)cc2)c(C)n(-c2cccc(C(F)(F)F)c2)c1=O` [Example 2, 4-[5-[6-methyl-2,4-dioxo-3-propyl-1-(3-trifluoromethylphenyl)-1,2,3,4-tetrahydropyrimidin-5-yl]-1H-pyrazol-1-yl]benzonitrile] are 18.6 nM and 35 nM.
On the same counts, the results for `Cc1c(-c2ccnn2-c2ccc(C#N)cc2)c(=O)n(C)c(=O)n1-c1cccc(Cl)c1` [Example 17, 4-[5-[1-(3-chlorophenyl)-3,6-dimethyl-2,4-dioxo-1,2,3,4-tetrahydropyrimidin-5-yl]-1H-pyrazol-1-yl]benzonitrile] are 23.4 nM and 95 nM.
The like results for `Cc1cccc(-n2c(C)c(-c3ccnn3-c3ccc(C#N)cc3)c(=O)n(C)c2=O)c1` [Example 37, 4-(5-(3,6-dimethyl-2,4-dioxo-1-m-tolyl-1,2,3,4-tetrahydropyrimidin-5-yl)-1H-pyrazol-1-yl)benzonitrile] were, in that order, 64.2 nM and 191 nM.
Regarding `Cc1c(-c2ccnn2-c2ccc(C#N)cc2)c(=O)n(CCC(=O)N(C)C)c(=O)n1-c1cccc(C(F)(F)F)c1` [Example 75, 3-[5-[1-(4-Cyanophenyl)-1H-pyrazol-5-yl]-4-methyl-2,6-dioxo-3-(3-trifluoromethylphenyl)-2,3-dihydropyrimidin-1(6H)-yl]-N,N-dimethylpropaneamide], the IC50 in data set [2] turned out to be 656 nM.
Still for that read-out and setting: next, `Cc1c(-c2ccnn2-c2ccc(C#N)cc2)c(=O)n(CC(N)=O)c(=O)n1-c1cccc(C(F)(F)F)c1` [Example 76, 2-[5-[1-(4-cyanophenyl)-1H-pyrazol-5-yl]-4-methyl-2,6-dioxo-3-(3-trifluoromethylphenyl)-2,3-dihydropyrimidin-1(6H)-yl]-acetamide]: 232 nM; `CNC(=O)Cn1c(=O)c(-c2ccnn2-c2ccc(C#N)cc2)c(C)n(-c2cccc(C(F)(F)F)c2)c1=O` [Example 77, 2-[5-[1-(4-cyanophenyl)-1H-pyrazol-5-yl]-4-methyl-2,6-dioxo-3-(3-trifluoromethylphenyl)-2,3-dihydropyrimidin-1(6H)-yl]-N-methylacetamide]: 184 nM; `CNC(=O)CCCn1c(=O)c(-c2ccnn2-c2ccc(C#N)cc2)c(C)n(-c2cccc(C(F)(F)F)c2)c1=O` [Example 80, 4-[5-[1-(4-cyanophenyl)-1H-pyrazol-5-yl]-4-methyl-2,6-dioxo-3-(3-trifluoromethylphenyl)-2,3-dihydropyrimidin-1(6H)-yl]-N-methylbutaneamide]: 1290 nM.
With `Cc1c(-c2ccnn2-c2ccc(C#N)cc2)c(=O)n(CCCC(=O)N(C)C)c(=O)n1-c1cccc(C(F)(F)F)c1` [Example 81, 4-[5-[1-(4-cyanophenyl)-1H-pyrazol-5-yl]-4-methyl-2,6-dioxo-3-(3-trifluoromethylphenyl)-2,3-dihydropyrimidin-1(6H)-yl]-N,N-dimethylbutaneamide], the IC50 in data set [2] turned out to be 616 nM.
Still for that read-out and setting: next, `Cc1c(-c2ccnn2-c2ccc(C#N)cc2)c(=O)n(CC(=O)N[C@@H](C)c2ccccc2)c(=O)n1-c1cccc(C(F)(F)F)c1` [Example 82, (S)-2-(5-(1-(4-cyanophenyl)-1H-pyrazole-5-yl)-4-methyl-2,6-dioxo-3-(3-(trifluoromethyl)phenyl)-2,3-dihydropyrimidin-1(6H)-yl)-N-(1-phenylethyl)acetamide]: 108 nM; `Cc1c(-c2ccnn2-c2ccc(C#N)cc2)c(=O)n(CCCO)c(=O)n1-c1cccc(C(F)(F)F)c1` [Example 83, 4-[5-[3-(3-Hydroxypropyl)-6-methyl-2,4-dioxo-1-(3-trifluoromethylphenyl)-1,2,3,4-tetrahydropyrimidin-5-yl]-1H-pyrazol-1-yl]benzonitrile]: 776 nM.
With `Cc1c(-c2ccnn2-c2ccc(C#N)cc2)c(=O)n(CCCCO)c(=O)n1-c1cccc(C(F)(F)F)c1` [Example 84, 4-[5-[3-(4-hydroxybutyl)-6-methyl-2,4-dioxo-1-(3-trifluoromethylphenyl)-1,2,3,4-tetrahydropyrimidin-5-yl]-1H-pyrazol-1-yl]benzonitrile], the IC50 in data set [2] was found to be 147 nM.
As for `Cc1c(-c2ccnn2-c2ccc(C#N)cc2)c(=O)n(CCCCCN)c(=O)n1-c1cccc(C(F)(F)F)c1` [Example 85, 4-[5-[3-(5-Aminopentyl)-6-methyl-2,4-dioxo-1-(3-trifluoromethylphenyl)-1,2,3,4-tetrahydropyrimidin-5-yl]-1H-pyrazol-1-yl]benzonitrile hydrochloride], the IC50 in data set [2] is 4.3 nM.
The same measure, in the same setting: the same measure for `CC(=O)NCCCCCn1c(=O)c(-c2ccnn2-c2ccc(C#N)cc2)c(C)n(-c2cccc(C(F)(F)F)c2)c1=O` [Example 86, N-[5-[5-[1-(4-Cyanophenyl)-1H-pyrazol-5-yl]-4-methyl-2,6-dioxo-3-(3-trifluoromethylphenyl)-2,3-dihydropyrimidin-1(6H)-yl]pentyl]acetamide]: 3.2 nM.
In the case of `Cc1c(-c2ccnn2-c2ccc(C#N)cc2S(C)(=O)=O)c(=O)n(C)c(=O)n1-c1cccc(C(F)(F)F)c1` [Example 102, 4-[5-[3,6-Dimethyl-2,4-dioxo-1-(3-trifluoromethylphenyl)-1,2,3,4-tetrahydropyrimidin-5-yl]-1H-pyrazol-1-yl]-3-(methylsulfonyl)benzonitrile], the IC50 in data set [2] stood at 150 nM.
As for `Cc1c(-c2ccnn2-c2ccc(C#N)cc2)c(=O)n(C)c(=O)n1-c1cccc(C(=O)O)c1` [Example 103, 3-[5-[1-(4-Cyanophenyl)-1H-pyrazol-5-yl]-3,6-dimethyl-2,4-dioxo-3,4-dihydropyrimidin-1(2H)yl]benzoic acid], the IC50 in data set [2] is 12200 nM.
With `Cc1c(-c2ccnn2-c2ccc(C#N)cc2)c(=O)n(C)c(=O)n1-c1cccc(C(N)=O)c1` [Example 104, 3-[5-[1-(4-Cyanophenyl)1H-pyrazol-5-yl]-3,6-dimethyl-2,4-dioxo-3,4-dihydropyrimidin-1(2H)yl]benzamide], in data set [2], the IC50 was 92500 nM.
The same measure, in the same setting: the same measure for `CNC(=O)c1cccc(-n2c(C)c(-c3ccnn3-c3ccc(C#N)cc3)c(=O)n(C)c2=O)c1` [Example 105, 3-[5-[1-(4-cyanophenyl)1H-pyrazol-5-yl]-3,6-dimethyl-2,4-dioxo-3,4-dihydropyrimidin-1(2H)yl]-N-methylbenzamide]: 22300 nM.
Still for that read-out and setting: the same measure for `Cc1c(-c2ccnn2-c2ccc(C#N)cc2)c(=O)n(C)c(=O)n1-c1cccc(C(=O)N(C)C)c1` [Example 106, 3-[5-[1-(4-cyanophenyl)1H-pyrazol-5-yl]-3,6-dimethyl-2,4-dioxo-3,4-dihydropyrimidin-1(2H)yl]-N,N-dimethylbenzamide]: 13900 nM.
Turning to `Cc1c(-c2ccnn2-c2ccc(C#N)cc2)c(=O)n(C)c(=O)n1-c1cccc(-c2ccccc2)c1` [Example 107, 4-(5-(1-(Biphenyl-3-yl)-3,6-dimethyl-2,4-dioxo-1,2,3,4-tetrahydropyrimidin-5-yl)-1H-pyrazol-1-yl)benzonitrile], the IC50 in data set [2] turned out to be 5400 nM.
On the same count and under the same terms, the same measure for `CCc1cccc(-n2c(C)c(-c3ccnn3-c3ccc(C#N)cc3)c(=O)n(C)c2=O)c1` [Example 108, 4-[5-[3,6-Dimethyl-2,4-dioxo-1-(3-ethylphenyl)-1,2,3,4-tetrahydropyrimidin-5-yl]-1H-pyrazol-1-yl]benzonitrile]: 332 nM.
For `Cc1c(-c2c(C(N)=O)cnn2-c2ccc(C#N)cc2)c(=O)n(C)c(=O)n1-c1cccc(C(F)(F)F)c1` [Example 148], the melting point came out at 263 °C. Moreover, in data set [1], the IC50 worked out at 14.5 nM.
In turn, `Cc1c(-c2c(C(=O)N3CCCC3)cnn2-c2ccc(C#N)cc2)c(=O)n(C)c(=O)n1-c1cccc(C(F)(F)F)c1` [Example 162] showed a melting point of 227 °C. Also, in data set [1], the IC50 stood at 12.6 nM.
The like results for `Cc1c(-c2ccnn2-c2ccc(C#N)cc2)c(=O)n(C(C)C(N)=O)c(=O)n1-c1cccc(C(F)(F)F)c1` (stereo not shown) [Example 377] were, in that order, 226 °C and 11 nM.
